# Experimental data as given in US10800741B2 (ANCUREALL PHARMACEUTICAL (SHANGHAI) CO., LTD., priority 2017, dated 2020).
# pIC50: −log10 of the molar value. Read-outs that look alike come from different tables or passages of the source.
# Assays:
# Assay type in all cases: cell-based, Human
# Kasumi-1 (KIT N822K) = assay: In vitro growth inhibition of Kasumi-1 tumor cells (MTT/CCK8); conditions: Homo sapiens
# KATO III (FGFR2 amp) = assay: In vitro growth inhibition of KATO III tumor cells (MTT/CCK8); conditions: Homo sapiens, KATO III, read-out: IC50 KATO III (FGFR2 amp)
# H1581 (FGFR1 amp) = assay: In vitro growth inhibition of H1581 tumor cells (MTT/CCK8); conditions: Homo sapiens
# H1703 (PDGFRa amp) = assay: In vitro growth inhibition of H1703 tumor cells (MTT/CCK8); conditions: Homo sapiens
# Karpas 299 (NPM-ALK) = assay: In vitro growth inhibition of Karpas 299 tumor cells (MTT/CCK8); conditions: Homo sapiens
# MOLM-13 (FLT3-ITD) = assay: In vitro growth inhibition of MOLM-13 tumor cells (MTT/CCK8); conditions: Homo sapiens
# KCL-22 (BCR-ABL) = assay: In vitro growth inhibition of KCL-22 tumor cells (MTT/CCK8); conditions: Homo sapiens
# Hep3B2 (FGFR3/4+++) = assay: In vitro growth inhibition of Hep3B2 tumor cells (MTT/CCK8); conditions: Homo sapiens, Hep3B, read-out: IC50 Hep3B2 (FGFR3/4+++)
# [1] = Kasumi 1, in vitro growth inhibition (or induction of apoptosis), cells cultured 3 to 5 days, MTT (CCK8), read-out: IC50 Kasumi-1 (KIT N822K)
# [2] = in vitro growth inhibition (or induction of apoptosis), cells cultured 3 to 5 days, MTT (CCK8)
# [3] = NCI-H1581, in vitro growth inhibition (or induction of apoptosis), cells cultured 3 to 5 days, MTT (CCK8), read-out: IC50 H1581 (FGFR1 amp)
# [4] = NCI-H1703, in vitro growth inhibition (or induction of apoptosis), cells cultured 3 to 5 days, MTT (CCK8), read-out: IC50 H1703 (PDGFRa amp)
# [5] = KARPAS-299, in vitro growth inhibition (or induction of apoptosis), cells cultured 3 to 5 days, MTT (CCK8), read-out: IC50 Karpas 299 (NPM-ALK)
# [6] = MOLM-13, in vitro growth inhibition (or induction of apoptosis), cells cultured 3 to 5 days, MTT (CCK8), read-out: IC50 MOLM-13 (FLT3-ITD)
# [7] = KCL-22, in vitro growth inhibition (or induction of apoptosis), cells cultured 3 to 5 days, MTT (CCK8), read-out: IC50 KCL-22 (BCR-ABL)
Compound,pIC50 (Kasumi-1 (KIT N822K); [1]),pIC50 (KATO III (FGFR2 amp); [2]),pIC50 (H1581 (FGFR1 amp); [3]),pIC50 (H1703 (PDGFRa amp); [4]),pIC50 (Karpas 299 (NPM-ALK); [5]),pIC50 (MOLM-13 (FLT3-ITD); [6]),pIC50 (KCL-22 (BCR-ABL); [7]),pIC50 (Hep3B2 (FGFR3/4+++); [2]),"pIC50 (Kasumi-1 (KIT N822K); Kasumi 1, read-out: IC50 Kasumi-1 (KIT N822K))",pIC50 (KATO III (FGFR2 amp)),"pIC50 (H1581 (FGFR1 amp); NCI-H1581, read-out: IC50 H1581 (FGFR1 amp))","pIC50 (H1703 (PDGFRa amp); NCI-H1703, read-out: IC50 H1703 (PDGFRa amp))","pIC50 (Karpas 299 (NPM-ALK); KARPAS-299, read-out: IC50 Karpas 299 (NPM-ALK))","pIC50 (MOLM-13 (FLT3-ITD); MOLM-13, read-out: IC50 MOLM-13 (FLT3-ITD))","pIC50 (KCL-22 (BCR-ABL); KCL-22, read-out: IC50 KCL-22 (BCR-ABL))",pIC50 (Hep3B2 (FGFR3/4+++))
"COc1cc2nccc(Oc3ccc(NC(=O)Nc4cc(C(C)(C)C)n[nH]4)c(Cl)c3)c2cc1NC(=O)C1CCCC1 [Compound 65, cyclopentane carboxylic acid (4-{4-[3-(5-tert-butyl-2H-pyrazol-3-yl)-ureido]-3-chloro-phenoxy}-7-methoxy-quinolin-6-yl)-amide]",6.25,7.96,6.66,6.61,< 6.00,7.14,6.79,6.80,,,,,,,,
"CCOc1cc2ncc(C#N)c(Oc3ccc(NC(=O)Nc4cc(C(C)(C)C)n[nH]4)c(Cl)c3)c2cc1NC(C)=O [Compound 68, N-(4-{4-[3-(5-tert-butyl-2H-pyrazol-3-yl)-ureido]-3-chloro-phenoxy}-3-cyano-7-ethoxy-quinolin-6-yl) acetamide]",< 6.00,< 6.00,< 6.00,< 6.00,< 6.00,< 6.00,< 6.00,< 6.00,,,,,,,,
"C=CC(=O)N1CCC(NC(=O)Nc2ccc(Oc3ccnc4cc(OC)c(C(N)=O)cc34)cc2Cl)C1 (stereo not drawn) [Compound 70, 4-{3-chloro-4-[3-(1-acryloylpyrrolidin-3-yl)-ureido]-phenoxy}-7-methoxyquinolin-6-carboxamide]",< 6.00,< 6.00,< 6.00,< 6.00,< 6.00,< 6.00,< 6.00,< 6.00,,,,,,,,
CNC(=O)c1cc2c(Oc3ccc(NC(=O)n4nc(C(C)(C)C)cc4N)c(Cl)c3)ccnc2cc1OC [Compound 72],,,,,,,,,6.86,8.21,6.78,6.60,6.13,7.29,6.93,6.80
"CNC(=O)c1cc2c(Oc3ccc(NC(=O)N4CCN(C)CC4)c(Cl)c3Cl)ccnc2cc1OCCOC [Compound 75, 4-{2,3-dichloro-4-[(4-methyl-piperazin-1-carbonyl)-amino]-phenoxy}-7-(2-methoxy-ethoxy)-quinolin-6-carboxylic acid methylamide]",< 6.00,< 6.00,< 6.00,< 6.00,< 6.00,< 6.00,< 6.00,< 6.00,,,,,,,,
"CNC(=O)c1cc2c(Oc3ccc(NC(=O)N4CCCC4)c(Cl)c3Cl)ccnc2cc1OCCOC [Compound 76, 4-{2,3-dichloro-4-[(pyrrolidin-1-carbonyl)-amino]-phenoxy}-7-(2-methoxy-ethoxy)-quinolin-6-carboxylic acid methylamide]",≤ 6.00,6.44,< 6.00,6.43,< 6.00,< 6.00,< 6.00,< 6.00,,,,,,,,
"COc1cc2nccc(Nc3ccc(NC(=O)Nc4cc(C(C)(C)C)on4)cc3)c2cc1C(N)=O [Compound 78, 4-{4-[3-(5-tert-butyl-isoxazol-3-yl)-ureido]-phenylamino}-7-methoxyquinolin-6-carboxamide]",< 6.00,7.44,6.16,6.35,< 6.00,8.86,< 6.00,6.30,,,,,,,,
"COc1cc2nccc(Nc3ccc(NC(=O)Nc4cc(C(C)(C)C)n[nH]4)c(Cl)c3)c2cc1C(N)=O [Compound 79, 4-{4-[3-(5-tert-butyl-2H-pyrazol-3-yl)-ureido]-3-chlorophenylamino}-7-methoxyquinol in-6-carboxamide]",< 6.00,7.70,6.60,6.56,< 6.00,6.97,< 6.00,6.42,,,,,,,,

# Second part, led by results:
pIC50 (Kasumi-1 (KIT N822K); [1]),pIC50 (KATO III (FGFR2 amp); [2]),pIC50 (H1581 (FGFR1 amp); [3]),pIC50 (H1703 (PDGFRa amp); [4]),pIC50 (Karpas 299 (NPM-ALK); [5]),pIC50 (MOLM-13 (FLT3-ITD); [6]),pIC50 (KCL-22 (BCR-ABL); [7]),pIC50 (Hep3B2 (FGFR3/4+++); [2]),Compound,"pIC50 (Kasumi-1 (KIT N822K); Kasumi 1, read-out: IC50 Kasumi-1 (KIT N822K))",pIC50 (KATO III (FGFR2 amp)),"pIC50 (H1581 (FGFR1 amp); NCI-H1581, read-out: IC50 H1581 (FGFR1 amp))","pIC50 (H1703 (PDGFRa amp); NCI-H1703, read-out: IC50 H1703 (PDGFRa amp))","pIC50 (Karpas 299 (NPM-ALK); KARPAS-299, read-out: IC50 Karpas 299 (NPM-ALK))","pIC50 (MOLM-13 (FLT3-ITD); MOLM-13, read-out: IC50 MOLM-13 (FLT3-ITD))","pIC50 (KCL-22 (BCR-ABL); KCL-22, read-out: IC50 KCL-22 (BCR-ABL))",pIC50 (Hep3B2 (FGFR3/4+++))
7.47,9.20,8.06,7.88,6.73,8.06,7.76,7.72,"CCC(=O)Nc1cc2c(Oc3ccc(NC(=O)Nc4cc(C(C)(C)C)n[nH]4)c(Cl)c3)ccnc2cc1OC [Compound 64, N-(4-{4-[3-(5-tert-butyl-2H-pyrazol-3-yl)-ureido]-3-chloro-phenoxy}-7-methoxyquinolin-6-yl)-propionamide]",,,,,,,,
7.61,8.17,6.79,6.36,6.06,7.14,7.72,6.57,"COc1cc2nccc(Oc3ccc(NC(=O)Nc4cc(C(C)(C)C)n[nH]4)c(Cl)c3)c2cc1C#N [Compound 67, 1-(5-tert-butyl-2H-pyrazol-3-yl)-3-[2-chloro-4-(6-cyano-7-methoxy-quinolin-4-yloxy)-phenyl]-urea]",,,,,,,,
< 6.00,< 6.00,< 6.00,< 6.00,< 6.00,< 6.00,< 6.00,< 6.00,"CCC(=O)N1CCC(NC(=O)Nc2ccc(Oc3ccnc4cc(OC)c(C(N)=O)cc34)cc2Cl)C1 (stereo not drawn) [Compound 69, 4-{3-chloro-4-[3-(1-propionyl-pyrrolidin-3-yl)-ureido]-phenoxy}-7-methoxyquinolin-6-carboxamide]",,,,,,,,
< 6.00,< 6.00,< 6.00,< 6.00,< 6.00,< 6.00,≤ 6.00,< 6.00,CCN1CCN(c2ccc(Nc3cc(NC(=O)Nc4ccc(Oc5ccnc6cc(OC)c(C(N)=O)cc56)c(Cl)c4Cl)ncn3)cc2)CC1 [Compound 71],,,,,,,,
6.89,6.58,6.86,6.65,7.05,6.71,7.09,6.54,"COc1cc(Oc2ccnc3cc(OC)c(C(N)=O)cc23)ccc1NC(=O)n1nc(C(C)(C)C)cc1N [Compound 73, 4-{4-[(5-amino-3-tert-butyl-pyrazol-1-carbonyl)-amino]-3-methoxy-phenoxy}-7-methoxyquinolin-6-carboxamide]",,,,,,,,
< 6.00,< 6.00,< 6.00,< 6.00,< 6.00,< 6.00,< 6.00,< 6.00,"COc1cc2nccc(Oc3ccc(NC(=O)N4CCc5ccsc5C4)c(Cl)c3)c2cc1C(N)=O [Compound 74, 4-{3-chloro-4-[(4,7-dihydro-5H-thieno[2,3-c]pyridin-6-carbonyl)-amino]-phenoxy}-7-methoxyquinolin-6-carboxamide]",,,,,,,,
6.29,7.77,6.62,6.67,< 6.00,7.37,6.53,6.31,"COc1cc2nccc(Nc3ccc(NC(=O)Nc4cc(C(C)(C)C)on4)c(Cl)c3)c2cc1C(N)=O [Compound 77, 4-{4-[3-(5-tert-butyl-isoxazol-3-yl)-ureido]-3-chlorophenylamino}-7-methoxyquinolin-6-carboxamide]",,,,,,,,
